Experiment: Boiling temperature at pressure P
Settings: Liquid, Ebulliometric method (Recirculating still)

O=C1OC(=O)c2cc(Cl)ccc21 [4-chlorophthalic anhydride]
Settings	Boiling temperature at pressure P [°C]
3.412 kPa	174.12
4.468 kPa	181.16
5.15 kPa	184.99
5.626 kPa	187.38
6.455 kPa	191.23
7.207 kPa	194.4
8.268 kPa	198.19
9.221 kPa	201.31
10.66 kPa	205.62
11.74 kPa	208.48
12.99 kPa	211.60
14.48 kPa	214.97
15.93 kPa	217.97
17.17 kPa	220.36
18.59 kPa	222.89
20.24 kPa	225.72
21.71 kPa	228.1
23.52 kPa	230.67
25.37 kPa	233.31
27.38 kPa	235.90
29.59 kPa	238.67
31.99 kPa	241.41
34.47 kPa	244.18
37.26 kPa	247.0
40.2 kPa	249.76
43.82 kPa	252.96
46.79 kPa	255.48
50.5 kPa	258.40
54.42 kPa	261.32
58.75 kPa	264.30
63.31 kPa	267.29
68.3 kPa	270.4
72.98 kPa	273.1
79.29 kPa	276.50
86.41 kPa	280.09
92.12 kPa	282.82
99.1 kPa	286.02
101 kPa	287

O=C1OC(=O)c2cc(F)ccc21 [5-fluoro-1,3-isobenzofurandione]
Settings	Boiling temperature at pressure P [°C]
3.549 kPa	153.68
4.301 kPa	158.39
5.517 kPa	164.86
6.582 kPa	169.60
7.86 kPa	174.33
8.973 kPa	178.04
10.5 kPa	182.54
12.25 kPa	187.07
13.2 kPa	189.31
15.16 kPa	193.52
17.63 kPa	198.20
18.81 kPa	200.23
21.16 kPa	204.02
23.05 kPa	206.79
26 kPa	210.78
31.21 kPa	216.91
36.41 kPa	222.26
40.95 kPa	226.48
45.02 kPa	229.90
47.3 kPa	231.69
48.21 kPa	232.43
51.3 kPa	234.71
53.29 kPa	236.12
55.87 kPa	237.93
57.3 kPa	238.87
59.62 kPa	240.39
65.49 kPa	244.02
69.16 kPa	246.14
73.58 kPa	248.63
78.49 kPa	251.18
85.68 kPa	254.76
90.57 kPa	257.03
93.83 kPa	258.51
96.02 kPa	259.49
97.24 kPa	260.02
101.21 kPa	261.70
